We go through eight molecules from patent publication US20040224031A1, “Combination of amines and vanadium (IV)/(V) compounds for the treatment and/or prevention of diabetes mellitus” (priority 2003, published 2004).

The test system of one series is isolated rat adipocytes. Put plainly: Hexose transport (2-deoxyglucose uptake) in isolated rat adipocytes. The series is classed as cell-based. On the set-up: stimulation of 2-deoxyglucose uptake, agent alone: dose or concentration left out as unconfirmed. The conditions noted are these: for glucose transport (2-DG uptake): 45 min preincubation of fat cells with increasing concentrations; for stimulation of 2-deoxyglucose uptake, agent alone: benzylamine or orthovanadate alone, 10-min uptake. How it is done: Adipocyte isolation. […] Adipose cells isolated in such a way were used in subsequent studies.
Hexose transport. After a preincubation period of 45 min at 37° C. in vials containing 400 μl of cell suspension in KRBH with the tested products, [^3H]-2-deoxyglucose was added at a final concentration of 0.1 mM (approx. 1,300,000 d.p.m./vial). […] After centrifugation, the fat cells (upper part of the tubes) were placed in scintillation vials and the incorporated radioactivity was counted.

In the next series the test system is GLUT4. The arrangement: increase in the abundance of GLUT4 in plasma membrane preparations / abundance of GLUT4 in plasma membranes, agent alone: dose or concentration left out as unconfirmed. The conditions noted are these: for abundance of GLUT4 in plasma membranes, agent alone: benzylamine or orthovanadate alone; for amount of GLUT4 protein in the plasma membrane (PM): n=3, orthovanadate 0.1 mM.

For series [1], the system named is streptozotocin-induced diabetic rats. Nature of the series: Chronic administration in streptozotocin-induced diabetic rats. Format: in vivo, rat. The conditions noted are these: for food and water consumption / weight of epididymal adipose tissue (adiposity): chronic treatment of diabetic rats. The source says: A group of animals was also subjected to daily i.p. injection of vanadate (50 μmol/kg body wt) for two weeks.
In other studies, rats were daily injected intraperitoneally with 25 μmol/kg vanadate for the first week and with 50 μmol/kg for the second week.

Setting [2] is: 1 mM H2O2, preincubation 45 min, n=23.
Where [3] appears, read: vanadate i.p. 25 μmol/kg first week and 50 μmol/kg second week, benzylamine 84 μmol/kg, FIG. 6, FIG. 7.

Protocol for GLUT4: To verify whether the stimulation of glucose transport in rat adipocytes may be explained by a translocation of the insulin-sensitive glucose transporters from an internal site to the plasma membrane, as it is known for insulin, the amount of GLUT4 protein was determined in plasma membrane (PM) and low density microsome (LDM) fractions.

For `OO` [H2O2, hydrogen peroxide], in the series on isolated rat adipocytes (setting [2]), the “effect relative to the maximal insulin effect” value is reported as 46% and the “factor multiplying basal hexose transport” value amounted to 5.0±0.8 fold. In the series with isolated rat adipocytes (5-min 2-DG uptake, FIG. 1), the “glucose transport (2-DG uptake)” value is on record as “dose-dependently stimulated”.
For the molecule `NCc1ccccc1` [benzylamine], in the series on GLUT4 (45 minutes incubation), the “abundance of GLUT4 in plasma membranes, agent alone” value is on record as “did not alter”. Moreover, in series [1], the “food and water consumption” value is “not detected”; the “weight of epididymal adipose tissue (adiposity)” value is reported as “not detected”. The glycemia entry in series [1] (setting [3]) is recorded as “remained hyperglycemic”. The “stimulation of 2-deoxyglucose uptake, agent alone” value in the series with isolated rat adipocytes (FIG. 3) is “no stimulatory effect”.
As to `CNC[C@H](O)c1cccc(O)c1` [phenylephrine], the “glucose transport (2-DG uptake)” value in the series with isolated rat adipocytes (5-min 2-DG uptake, FIG. 1) is reported as “not activated”.
For `NNC(N)=O` [semicarbazide], the “effect on glucose transport stimulated by 1 mM hydrogen peroxide plus 0.1 mM orthovanadate” value in the series on isolated rat adipocytes is given as “unaffected”. Besides, the inhibition – broadly, the percentage by which the read-out fell short of the control – at 100 µM with isolated rat adipocytes (Rattus norvegicus, Adipocyte, read-out: inhibition of the glucose transport promoted by 1 mM tyramine plus orthovanadate) was 59 ± 7%. Also, the “effect on stimulation of 2-deoxyglucose uptake by benzylamine and orthovanadate” value in the series with isolated rat adipocytes (semicarbazide (1 mM), FIG. 3) is on record as “abolished”.
For `NCCc1c[nH]c2ccc(O)cc12` [serotonin], the “glucose transport (2-DG uptake)” value with isolated rat adipocytes (5-min 2-DG uptake, FIG. 1) is listed as “not activated”.
`NCCc1ccc(O)cc1` [tyramine]: the “glucose transport (2-DG uptake)” value in the series on isolated rat adipocytes (5-min 2-DG uptake, FIG. 1) is listed as “not activated”. For the same molecule, the “synergism on glucose transport with low, ineffective doses of insulin (10 pM) or hydrogen peroxide (0.01 mM)” value in the series with isolated rat adipocytes (not shown) is given as “no synergism”.
“insulin: hormone used as positive control for glucose transport and GLUT4 translocation”: the “GLUT4 abundance in light microsomes” value with GLUT4 is recorded as “reduction”. Further, in the series with GLUT4 (45 minutes incubation), the “increase in the abundance of GLUT4 in plasma membrane preparations” value stood at 3.3 fold. Also, the “content of β1-integrin, a constitutive PM protein” value in the series with GLUT4 (Example 2, plasma membrane fraction) was “without any significant change”. The “plasma membrane marker β1-integrin” value in the series with GLUT4 (Example 4, 45 minutes incubation) is given as “remained unaltered”. Moreover, the “decrease of basal GLUT4 content of LDM” value in the series with GLUT4 (Western blot, low density microsomes) came out at 29%. In the series on GLUT4 (Western blot), the “amount of GLUT4 protein in the plasma membrane (PM)” value is recorded as 252±43%. In addition, in the series on isolated rat adipocytes (insulin, 45 min preincubation, 5-min 2-DG uptake, FIG. 1), the “increase of basal 2-DG uptake” value was “twelve-fold”.
As for sodium orthovanadate, the “abundance of GLUT4 in plasma membranes, agent alone” value in the series with GLUT4 (45 minutes incubation) was “did not alter”. Moreover, the “amount of GLUT4 protein in the plasma membrane (PM)” value in the series on GLUT4 (Western blot) was determined as 103±8%. Besides, in series [1], the “food and water consumption” value is recorded as “not detected”; the “weight of epididymal adipose tissue (adiposity)” value is “not detected”. Also, the glycemia result in series [1] (vanadate 50 μmol/kg daily i.p. for two weeks, benzylamine 84 μmol/kg/day by osmotic minipumps, FIG. 5) is on record as “moderate reduction”. Besides, the glycemia entry in series [1] (setting [3]) is reported as “remained hyperglycemic”. Moreover, in the series on isolated rat adipocytes (1 mM tyramine, 0.1 mM orthovanadate, 100 nM insulin, n=40), the “stimulation of glucose transport as % of that of 100 nM insulin” value is given as 5±1%. Besides, the “stimulation of 2-deoxyglucose uptake, agent alone” value with isolated rat adipocytes (FIG. 3) was “did not stimulate”. For the same molecule, the “effect on basal or insulin-stimulated glucose transport” value in the series with isolated rat adipocytes (orthovanadate alone 0.1 mM, FIG. 2) is given as “did not affect”.
